Experimental data: paper PMC11325787, “A fluorescence polarization assay for high-throughput screening of inhibitors against HIV-1 Nef-mediated MHC-I downregulation” (The Journal of Biological Chemistry, 2024)
Peptide text beside a SMILES is read from it. * marks the point of attachment. X1 = CN(C)c1ccc2c(-c3ccc(C(=O)*)cc3C(=O)[O-])c3ccc(=[N+](C)C)cc-3oc2c1; 5TAMRA = CN(C)c1ccc2c(c1)Oc1cc(N(C)C)ccc1C21OC(=O)c2cc(C(=O)*)ccc21

Key:
[1] = target: T1, MBP-Nef-μ1^CTD (UniProt P03406+P35585); type: binding, HIV-1 (Nef 59–206, NL4.3); settings: 300 μM, result in words; for effect on FP signal: 30 μM MBP-Nef-μ1^CTD, 50 nM TMR-enhanced-MHC-ICD, room temperature; for effect on FP signal / noise in the assay: final dimethylsulfoxide 3%; for background of the assay: not shown
T1 construct: fusing HIV-1 Nef (59–206, NL4.3) to the C terminal domain of μ1 subunit of AP1; to the C terminal domain of μ1 subunit of AP1 via a flexible linker of 20 amino acids; 6xHis (C); made in house; host or cells: Escherichia coli
T1 sequence (P03406 59-206 limits assumed): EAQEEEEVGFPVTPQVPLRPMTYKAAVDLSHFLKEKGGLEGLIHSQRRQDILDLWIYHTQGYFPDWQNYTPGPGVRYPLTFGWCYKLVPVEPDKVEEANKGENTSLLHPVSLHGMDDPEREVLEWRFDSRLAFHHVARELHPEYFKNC
T1 sequence (P35585 168-421 limits assumed): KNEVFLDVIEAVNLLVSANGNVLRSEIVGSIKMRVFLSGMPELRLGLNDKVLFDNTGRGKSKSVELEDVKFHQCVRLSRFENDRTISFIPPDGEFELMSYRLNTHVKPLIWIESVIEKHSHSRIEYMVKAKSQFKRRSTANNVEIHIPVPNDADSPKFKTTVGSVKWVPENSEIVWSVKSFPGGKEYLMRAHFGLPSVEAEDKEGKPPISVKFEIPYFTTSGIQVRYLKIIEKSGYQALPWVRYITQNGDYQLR

[2] = target: T1, MBP-Nef-μ1^CTD; assay: Fluorescence polarization binding assay of TMR-labelled MHC-ICD probes with the Nef-μ1^CTD fusion; design: species or system HIV-1 (Nef 59–206, NL4.3); settings: 50 nM probe
Method: The assay volume was miniaturized and kept at 15 μl for compatibility with HTS.
Purified MBP-Nef-μ1^CTD was buffer exchanged into the assay buffer (50 mM Tris, 150 mM NaCl, 0.5 mM DTT, 0.01% Triton X-100, pH 8.0). A stock protein solution of 120 μM Nef-μ1^CTD was then prepared and was subsequently used to create different dilutions. Assays were carried out in Corning 384-well black microplates (3820). In each well, 50 nM TMR-labeled MHC-ICD peptide was mixed with MBP-Nef-μ1^CTD at varied concentrations in a total volume of 15 μl. The plate was incubated for 1∼2 h at room temperature with minimal exposure to light. FP was then measured using the EnVision plate reader (PerkinElmer) with excitation at 535 nm and emission at 595 nm. Experiments were done in triplicates. Data was fitted to nonlinear regression and plotted as a function of protein concentration in a logarithmic scale using OriginLab.
The adjusted data was then fitted to nonlinear regression for one-site binding using the following equation: Y = Bmax∗X/(KD + X) (Bmax: maximum specific binding in the same units as Y).

[3] = Stability of the probes on the bench; settings: room temperature
[4] = target: T1, MBP-Nef-μ1^CTD; assay: Competition of TMR-enhanced-MHC-ICD by unlabeled enhanced-MHC-ICD peptide (FP); type: binding, HIV-1 (Nef 59–206, NL4.3); settings: room temperature, result in words
Excerpt: We next investigated whether our assay is sensitive to competitive inhibition. Here, an unlabeled, modified MHC-ICD peptide was used as the competitor. The sequence of this competitor peptide is different from the authentic sequence of MHC-ICD in the following ways. […] Second, to improve the solubility of the competitor peptide, we introduced three additional mutations in the MHC-ICD sequence: Q322E, G325S, and S326D. According to the previous structure, these mutations should not interfere with Nef-μ1^CTD binding but should increase the peptide’s hydrophilicity.
The Nef-μ1^CTD fusion was constructed by fusing HIV-1 Nef (59–206, NL4.3) to the C terminal domain of μ1 subunit of AP1 via a flexible linker of 20 amino acids. Gene encoding the above Nef-μ1^CTD fusion was cloned into a modified pMAT9 expression vector with a 6xHis tag introduced at the C-terminus of the fusion protein. Escherichia coli cells transformed with the plasmid were grown at 37 °C till A600 reached 0.8. Protein expression was then induced with 0.1 mM IPTG and continued at 16 °C overnight. Cells were then lysed using sonication. The protein of interest was purified sequentially through a Ni-NTA affinity column, a MBP affinity column, a HiTrap Q anion exchange column, and finally a Superdex 200 size exclusion column.
For competition using unlabeled enhanced-MHC-ICD peptide, a stock solution of 1.2 mM unlabeled enhanced-MHC-ICD peptide was first prepared. The stock solution was then serial-diluted (2-fold each) 10 times. […] The plate was incubated at room temperature and read at different time points. FP values were recorded. All experiments were done in triplicates.

[5] = Precipitation/solubility of competitor peptide observed during experiments; type: physicochemical; settings: seen during experiments; stock solution 1.2 mM; result in words
[6] = target: TMR-MHC-ICD; assay: fluorescence polarisation

With `OC[C@H]1O[C@H](O[C@H]2[C@H](O)[C@@H](O)C(O)O[C@@H]2CO)[C@H](O)[C@@H](O)[C@@H]1O` (mixture of isomers) [maltose] the “effect on FP signal” value [1] was “did not lead to any meaningful decrease of the FP signal”, the “noise in the assay” value [1] was “did not cause noise” and the “background of the assay” value [1] was “no fluctuation at all”.
For `C[C@H](NC(=O)[C@H](C)NC(=O)[C@H](CCC(N)=O)NC(=O)[C@H](CO)NC(=O)[C@H](Cc1ccc(O)cc1)NC(=O)[C@H](CO)NC(=O)c1ccc(-c2c3ccc(=[N+](C)C)cc-3oc3cc(N(C)C)ccc23)c(C(=O)[O-])c1)C(=O)NCC(=O)N[C@@H](CO)C(=O)N[C@@H](CC(=O)O)C(=O)N[C@@H](CO)C(=O)N[C@@H](C)C(=O)N[C@@H](CCC(N)=O)C(=O)O` [TMR-MHC-ICD] (X1-SYSQAAGSDSAQ-OH; N-terminus and C-terminus assumed), the Kd ([2]; FP, MBP-Nef-μ1^CTD varied, 15 μl, 384-well, 50 mM Tris, 150 mM NaCl, 0.5 mM DTT, 0.01% Triton X-100, pH 8.0, 1∼2 h, room temperature, ex 535 nm, em 595 nm, triplicates, TMR-mutant-MHC-ICD signal subtracted, one-site binding fit, read-out: KD (dissociation constant)) was 44.1 µM, the “signal window (difference between probe and TMR-mutant-MHC-ICD curves)” value ([2]; low Nef-μ1^CTD concentrations, result in words) was “very modest” and the stability of probe [3] was “at least 20 h”.
For `CC(C)C[C@H](NC(=O)[C@H](CCC(N)=O)NC(=O)[C@H](CO)NC(=O)[C@H](Cc1ccc(O)cc1)NC(=O)[C@H](CO)NC(=O)c1ccc2c(c1)C(=O)OC21c2ccc(N(C)C)cc2Oc2cc(N(C)C)ccc21)C(=O)N[C@@H](C)C(=O)NCC(=O)N[C@@H](CO)C(=O)N[C@@H](CC(=O)O)C(=O)N[C@@H](CO)C(=O)N[C@@H](C)C(=O)N[C@@H](CCC(N)=O)C(=O)O` [TMR-enhanced-MHC-ICD] (5TAMRA-SYSQLAGSDSAQ-OH), the stability of probe [3] was “at least 20 h”.
With `O=C(N[C@H](CO)[C@H](O)c1ccc([N+](=O)[O-])cc1)C(Cl)Cl` [chloramphenicol] the “effect on FP signal” value [1] was “did not lead to any meaningful decrease of the FP signal”, the “noise in the assay” value [1] was “did not cause noise” and the “background of the assay” value [1] was “no fluctuation at all”.
In the case of `CC(C)C[C@H](NC(=O)[C@H](CCC(=O)O)NC(=O)[C@H](CO)NC(=O)[C@H](Cc1ccc(O)cc1)NC(=O)[C@@H](N)CO)C(=O)N[C@@H](C)C(=O)N[C@@H](CO)C(=O)N[C@@H](CC(=O)O)C(=O)N[C@@H](CC(=O)O)C(=O)N[C@@H](CO)C(=O)N[C@@H](C)C(=O)N[C@@H](CCC(N)=O)C(=O)O` [unlabeled enhanced MHC-ICD peptide] (H-SYSELASDDSAQ-OH; N-terminus and C-terminus assumed), the “effect on FP signal (displacement of TMR-enhanced-MHC-ICD probe)” value ([4]; 30 μM MBP-Nef-μ1^CTD, 50 nM TMR-enhanced-MHC-ICD, varied competitor, triplicates) is reported as “dose-dependent decrease of the FP signal”, the “competition of the fluorescence-labeled probe after 1-h incubation” value ([4]; 1-h incubation, three independent samples, one-way ANOVA p < 0.0001) is reported as “successfully observed” and the “competition signals after 4 h” value ([4]; 4 h, three independent samples, longer incubation led to a gradual decrease of the FP signal (not shown)) is reported as “remained stable”. For the same molecule, the precipitation [5] was “sometimes forms precipitates”.
For “MBP-Nef-μ1^CTD fusion protein (from UniProt P03406;P35585)”, the Kd [6] was 44.1 µM.
For TMR-SDSQAAGSRSAQ [TMR-mutant-MHC-ICD], the “FP signal at Nef-μ1^CTD concentration beyond 50 μM” value ([2]; Nef-μ1^CTD >50 μM, noise believed to be light scattering of MBP-Nef-μ1^CTD, result in words) was “increased modestly” and the stability of probe [3] was “at least 20 h”.
